Tested on: 817829-284-R-J1-PDC complex spheroids, viability
Assay: Anticancer human tumor 817829-284-R-J1-PDC patient-derived colon adenocarcinoma cell line growth inhibition [GQUAD]
Conditions: for IC50: curve of first compound; for viability, T/C: stronger effect = lower value
Excerpt: DNA G-quadruplex Stabilizer Agents in Combinations in Complex Spheroids
A high-throughput screen of multi-cell type tumor spheroids was designed to identify active combinations of DNA G-quadruplex stabilizer agents and targeted small molecules. Complex spheroids include a stromal component modeled by human endothelial cells (HUVEC) and fibroblasts modeled by human mesenchymal stem cells (MSCs). The concentration ranges selected for each drug and investigational agent were based upon clinically achievable concentrations if the clinical Cmax of the agent was known.
Compounds. The drugs and investigational agents: pidnarulex (CX-5461; NSC782164), APTO-253 (NSC789042), BRACO-19 (NSC847499), peposertib (NSC802822), ceralasertib (NSC780249), elimusertib (NSC800525), camonsertib (NSC841442), AZD-1390 (NSC803789), olaparib (NSC753686), talazoparib (NSC767125), ART-558 (NSC835418), sotorasib (NSC818433), MRTX-1133 (NSC836407), SN-38 (NSC673596), topotecan (NSC609699), etoposide (NSC141540), doxorubicin (NSC123127), gemcitabine (NSC613327), 5-fluorouracil (NSC19893), paclitaxel (NSC125973), vemurafenib (NSC761431), panobinostat (NSC761190), R-306465 (JNJ-16241199; NSC773264), adavosertib (NSC754352), TP-3654 (NSC805149), carboplatin (NSC241240), KSQ-4279 (NSC840948), and staurosporine (NSC755774) were obtained from the National Cancer Institute (NCI) Developmental Therapeutics Program Chemical Repository (34). The FDA-approved anticancer drug set is available from the NCI Developmental Therapeutics Program. […] The stock solutions were prepared in dimethyl sulfoxide (DMSO, Sigma-Aldrich, St. Louis, MO, cat. D2650) at 800-fold the tested concentration and stored at -70 degrees C prior to their use. All drugs and investigational agents were tested over a range starting from a high concentration at or near the clinical Cmax and decreasing in half-log increments. If the clinical Cmax for an agent had not been determined, the highest concentration tested was 10 microM.
2.3 Cell Culture. All cells were maintained in an incubator at 37 degrees C and 5% CO2 with 95% humidity. The PDC lines were cultured according to standard operating procedures established by the NCI PDMR. All PDCs were thawed and cultured in Matrigel-coated flasks prepared with a working solution of 1X Ham's F-12 nutrient mix, without supplementation (Invitrogen, cat. 11765054), 100 U/mL penicillin-streptomycin (Invitrogen, cat. 15140122), and 2.5% Matrigel (Corning Inc., cat. 354248) for the first three passages. The 857933-349-R-J2-PDC line was cultured in 6C/Colon 1B media, which includes advanced DMEM/F-12 (Thermo Fisher Scientific, cat. 12634028), 10 mM HEPES (Thermo Fisher Scientific, cat. 15630080), 1X GlutaMAX supplement (Thermo Fisher Scientific, cat. 35050061), 0.1 mg/mL primocin (InvivoGen, cat. ant-pm-2), 10% defined fetal bovine serum, heat inactivated (HyClone Laboratories Inc., cat. SH30070.03HI), 50% L-WRN conditioned media (ATCC, cat. CRL-3276), 1.25 mM N-Acetyl-L-cysteine (Sigma-Aldrich, cat. A9165), 10 mM nicotinamide (Sigma-Aldrich, cat. N0636), 1X B-27 supplement (Thermo Fisher Scientific, cat. 17504044), 1X N-2 supplement (Thermo Fisher Scientific, cat. 17502048), 10 microM Y-27632 dihydrochloride (Tocris Bioscience, cat. 1254), and 50 ng/mL human EGF recombinant protein (Thermo Fisher Scientific, cat. PHG0311). The 485176-168-R4-J1-PDC line was cultured in Panc media, which includes all 6C/Colon 1B media components plus 100 ng/mL human FGF-10 (Thermo Fisher Scientific, cat. 100-26), 500 nM SB-431542 (Selleckchem, cat. S1067), and gastrin (Tocris, cat. 3006).
[…]

[1] = second compound 0.0316 µM, first compound 0.0316 µM
[2] = second compound 0.0316 µM, first compound 0.316 µM
[3] = second compound 0.1 µM, first compound 0.0316 µM
[4] = second compound 0.1 µM, first compound 0.316 µM
[5] = second compound 0.316 µM, first compound 0.0316 µM
[6] = second compound 0.316 µM, first compound 0.316 µM
[7] = second compound 1 µM, first compound 0.0316 µM
[8] = second compound 1 µM, first compound 0.316 µM
[9] = second compound 3.16 µM, first compound 0.0316 µM
[10] = second compound 3.16 µM, first compound 0.316 µM
[11] = second compound 10 µM, first compound 0.0316 µM
[12] = second compound 10 µM, first compound 0.316 µM
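Further: spheroids exposed to agents for 7 days before readout.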
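Wherever viability, T/C is given: percent viability relative to DMSO vehicle control taken as 100%.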

Compound: CC(=O)O[C@H]1C(=O)[C@@]2(C)[C@H]([C@H](OC(=O)c3ccccc3)[C@]3(O)C[C@H](OC(=O)[C@H](O)[C@@H](NC(=O)c4ccccc4)c4ccccc4)C(C)=C1C3(C)C)[C@]1(OC(C)=O)CO[C@@H]1C[C@@H]2O + CN(C)c1ccc(Nc2c3ccc(NC(=O)CCN4CCCC4)cc3nc3cc(NC(=O)CCN4CCCC4)ccc23)cc1
- IC50 (second compound 0.0316 µM): < 31.6 nM
- IC50 (second compound 0.1 µM): < 31.6 nM
- IC50 (second compound 0.316 µM): < 31.6 nM
- IC50 (second compound 1 µM): < 31.6 nM
- IC50 (second compound 3.16 µM): < 31.6 nM
- IC50 (second compound 10 µM): < 31.6 nM
- viability, T/C [1]: 10.1%
- viability, T/C (second compound 0.0316 µM, first compound 0.1 µM): 6.36%
- viability, T/C [2]: 5.48%
- viability, T/C (second compound 0.0316 µM, first compound 1 µM): 3.71%
- viability, T/C (second compound 0.0316 µM, first compound 3.16 µM): 4.17%
- viability, T/C (second compound 0.0316 µM, first compound 10 µM): 5.39%
- viability, T/C [3]: 9.42%
- viability, T/C (second compound 0.1 µM, first compound 0.1 µM): 5.98%
- viability, T/C [4]: 5.19%
- viability, T/C (second compound 0.1 µM, first compound 1 µM): 3.91%
- viability, T/C (second compound 0.1 µM, first compound 3.16 µM): 4.27%
- viability, T/C (second compound 0.1 µM, first compound 10 µM): 5.02%
- viability, T/C [5]: 8.92%
- viability, T/C (second compound 0.316 µM, first compound 0.1 µM): 5.75%
- viability, T/C [6]: 5.24%
- viability, T/C (second compound 0.316 µM, first compound 1 µM): 2.54%
- viability, T/C (second compound 0.316 µM, first compound 3.16 µM): 3.86%
- viability, T/C (second compound 0.316 µM, first compound 10 µM): 5.06%
- viability, T/C [7]: 7.08%
- viability, T/C (second compound 1 µM, first compound 0.1 µM): 5.92%
- viability, T/C [8]: 5.25%
- viability, T/C (second compound 1 µM, first compound 1 µM): 3.52%
- viability, T/C (second compound 1 µM, first compound 3.16 µM): 4.82%
- viability, T/C (second compound 1 µM, first compound 10 µM): 5.09%
- viability, T/C [9]: 6.77%
- viability, T/C (second compound 3.16 µM, first compound 0.1 µM): 5.36%
- viability, T/C [10]: 6.1%
- viability, T/C (second compound 3.16 µM, first compound 1 µM): 5.09%
- viability, T/C (second compound 3.16 µM, first compound 3.16 µM): 4.3%
- viability, T/C (second compound 3.16 µM, first compound 10 µM): 5.84%
- viability, T/C [11]: 10.1%
- viability, T/C (second compound 10 µM, first compound 0.1 µM): 6.08%
- viability, T/C [12]: 5.52%
- viability, T/C (second compound 10 µM, first compound 1 µM): 4.61%
- viability, T/C (second compound 10 µM, first compound 3.16 µM): 4.57%
- viability, T/C (second compound 10 µM, first compound 10 µM): 5.48%

Compound: CCc1c2c(nc3ccc(O)cc13)-c1cc3c(c(=O)n1C2)COC(=O)[C@]3(O)CC + CN(C)c1ccc(Nc2c3ccc(NC(=O)CCN4CCCC4)cc3nc3cc(NC(=O)CCN4CCCC4)ccc23)cc1
- IC50 (second compound 0.0316 µM): 1.19 nM
- IC50 (second compound 0.1 µM): 1.44 nM
- IC50 (second compound 0.316 µM): 2.21 nM
- IC50 (second compound 1 µM): 2.22 nM
- IC50 (second compound 3.16 µM): 2.78 nM
- IC50 (second compound 10 µM): 2.02 nM
- viability, T/C (second compound 0.0316 µM, first compound 0.000999 µM): 50.9%
- viability, T/C (second compound 0.0316 µM, first compound 0.00316 µM): 44.4%
- viability, T/C (second compound 0.0316 µM, first compound 0.00999 µM): 32.1%
- viability, T/C [1]: 21.4%
- viability, T/C (second compound 0.0316 µM, first compound 0.0999 µM): 10.8%
- viability, T/C [2]: 6.33%
- viability, T/C (second compound 0.1 µM, first compound 0.000999 µM): 54.2%
- viability, T/C (second compound 0.1 µM, first compound 0.00316 µM): 40.1%
- viability, T/C (second compound 0.1 µM, first compound 0.00999 µM): 34.6%
- viability, T/C [3]: 19.8%
- viability, T/C (second compound 0.1 µM, first compound 0.0999 µM): 10.2%
- viability, T/C [4]: 4.96%
- viability, T/C (second compound 0.316 µM, first compound 0.000999 µM): 53.4%
- viability, T/C (second compound 0.316 µM, first compound 0.00316 µM): 48.3%
- viability, T/C (second compound 0.316 µM, first compound 0.00999 µM): 36.7%
- viability, T/C [5]: 19.2%
- viability, T/C (second compound 0.316 µM, first compound 0.0999 µM): 10.4%
- viability, T/C [6]: 5.53%
- viability, T/C (second compound 1 µM, first compound 0.000999 µM): 61.1%
- viability, T/C (second compound 1 µM, first compound 0.00316 µM): 44.1%
- viability, T/C (second compound 1 µM, first compound 0.00999 µM): 32.5%
- viability, T/C [7]: 21.3%
- viability, T/C (second compound 1 µM, first compound 0.0999 µM): 11.2%
- viability, T/C [8]: 5.92%
- viability, T/C (second compound 3.16 µM, first compound 0.000999 µM): 66.4%
- viability, T/C (second compound 3.16 µM, first compound 0.00316 µM): 45.1%
- viability, T/C (second compound 3.16 µM, first compound 0.00999 µM): 35%
- viability, T/C [9]: 23.7%
- viability, T/C (second compound 3.16 µM, first compound 0.0999 µM): 12.2%
- viability, T/C [10]: 6.09%
- viability, T/C (second compound 10 µM, first compound 0.000999 µM): 60.8%
- viability, T/C (second compound 10 µM, first compound 0.00316 µM): 42.9%
- viability, T/C (second compound 10 µM, first compound 0.00999 µM): 28.7%
- viability, T/C [11]: 20.6%
- viability, T/C (second compound 10 µM, first compound 0.0999 µM): 11.4%
- viability, T/C [12]: 6.76%
